What all share (assay type): binding
One assay concerns the target T1, PDZ1 of PSD-95 (Homo sapiens, UniProt P78352).
T1 construct: PDZ1 (61-151); made in house; host or cells: E. coli BL21-DE3 pLysS
The assay is described as follows: FP inhibition assay, Cy5-GluN2B probe / PDZ1. To be noted: concentrations reaching 500–1800 μM; Cy5-GluN2B 50 nM; [PDZ1] = 10 μM (ZL006) or 18 μM (IC87201). On the procedure:
Fluorescent probes were made by attaching fluorophores (Cy5) to C-terminal 10- or 11-mer (C10 or C11) peptide ligands representing canonical and natural occurring protein partners (Supplementary Table S1). […] (Fig. 2).
(b) Cy5-GluN2B as probe (50 nM), [PDZ2] = 6 μM. (c) Cy5-CRIPT as probe (50 nM), [PDZ3] = 5 μM. […] Error bars indicate SEM based on three individual measurements. […]
(§1) Incubation time was 10–15 minutes (room temperature), and the assay was performed in a 1 × TBS buffer (150 mM NaCl, 10 mM Tris, pH 7.4) using black flat-bottom 384-well plates (Corning Life Sciences, NY) and a Safire2 plate-reader (Tecan, Männedorf, Switzerland). […] TAMRA- and Cy5-probes were measured at excitation/emission values of 530/585 nm (bandwidth = 20 nm) and 635/670 nm (bandwidth = 15 nm), respectively. […]
FP values were fitted to the general equation: Y = Bottom + (Top–Bottom)/[1 + (10^(X-logIC50)*HillSlope)], where X is the logarithmic value of peptide/compound concentration, and Y is the experimental FP values. Competitive inhibition constants, Ki values, were calculated from the IC50 values to quantify affinities between test substance and protein[42]. […]

Assay [1] has as its target T2, TAMRA-nNOS/PSD-95-PDZ1 interaction (Homo sapiens, UniProt P29475+P78352, V36C).
T2 construct: nNOS-PDZ (12–130, human); PDZ1 (61-151); made in house; host or cells: E. coli
The assay is described as follows: 'direct' FP assay, TAMRA-nNOS / PDZ1 (saturation and inhibition). As to the method: The assay was established by creating a fluorescent version of nNOS-PDZ by TAMRA-labelling nNOS-PDZ via an introduced cysteine residue (V36C). […] However, up to 7.3 μM no inhibition of TAMRA-nNOS/PSD-95-PDZ interactions could be measured (data not shown).
(a) Saturation curves between TAMRA-nNOS (5 nM) and PDZ1, PDZ2, and PDZ1-2 of PSD-95. […] Error bars indicate SEM based on three individual measurements.
nNOS-PDZ (12–130, human) and α-Syntrophin-PDZ (82–200, human), both comprising an N-terminal His-tag/FXa-site sequence ([…]), were likewise expressed in E. coli and purified by HisTrap chromatography followed by gel-filtration as described in details previously. To make the TAMRA-labelled nNOS-PDZ, mutant nNOS-PDZ (V36C) protein was generated by standard site-directed mutagenesis and characterized as described previously. […]
as §1

For assay [2], the target named is T3, nNOS-PDZ/PSD-95-PDZ2 interaction (Homo sapiens, UniProt P29475).
T3 construct: nNOS-PDZ (12–130, human); PDZ2 (155-249); made in house; host or cells: E. coli
T3 sequence (P29475 12-130): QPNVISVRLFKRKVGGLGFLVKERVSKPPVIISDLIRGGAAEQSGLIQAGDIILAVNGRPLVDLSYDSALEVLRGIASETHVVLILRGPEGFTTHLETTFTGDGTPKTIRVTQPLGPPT
The experiment in a line: 'indirect' FP assay, Cnskr2 probe / PSD-95-PDZ2 / nNOS-PDZ. To be noted: for activity in indirect FP assay (nNOS-PDZ/PSD-95-PDZ2): up to 500–600 μM, Cy5-Cnskr2 5 nM / PSD-95-PDZ2 3 μM / nNOS-PDZ 5 μM. The text has this: (§2) First we tested a series of 23 fluorescent-labelled C-terminal peptide ligands (Supplementary Table S1) derived from PDZ-interacting proteins in order to find a probe with good activity towards the PSD-95 PDZ domains and no or little activity against nNOS-PDZ (Supplementary Fig. S1). The Cnskr2 probe fulfilled these selectivity criteria and was used to generate saturation curves with PDZ2 and PDZ1-2 of PSD-95 (Fig. 4a). […] Next, fixed concentrations of TAMRA-Cnskr2, PSD-95-PDZ2/1-2, and nNOS-PDZ were applied, corresponding to the conditions at IC50 of the nNOS-PDZ inhibition curve (Fig. 4b) where sensitivity of the assay is greatest. […] Here, we used the Sapk3-peptide as it has the desired high affinity to α1-Syntrophin-PDZ and low affinity to nNOS-PDZ (Supplementary Fig. S1).
(§3) The minor increases in mP at high concentrations, 260-2900 μM, were due to fluorescence artefacts.
(§4) Similar, this assay was established with Syntrophin-PDZ and Sapk3 as probe (Fig. 4d).
(§5) In all cases, the DMSO effect on the assay was tested and found negligible.

Assay [3] deals with T4, nNOS-PDZ/PSD-95-PDZ1-2 interaction (Homo sapiens, UniProt P29475).
T4 construct: nNOS-PDZ (12–130, human); PDZ1-2 (61-249); made in house; host or cells: E. coli
T4 sequence (P29475 12-130): as above
The experiment in a line: 'indirect' FP assay, Cnskr2 probe / PSD-95-PDZ1-2 / nNOS-PDZ.
From the text: as §2, §3, §4, §5

Regarding `O=C(O)c1ccc(NCc2cc(Cl)cc(Cl)c2O)cc1O` [ZL006, 4-((3,5-Dichloro-2-hydroxybenzyl)amino)-2-hydroxybenzoic acid], the “inhibition of probe-PDZ interaction (PDZ1)” value against PDZ1 of PSD-95 is reported as “did not inhibit”. In addition, the “inhibition of TAMRA-nNOS/PDZ1 interaction” value in assay [1] (tested at up to 1200 μM, TAMRA-nNOS 5 nM, PDZ1 7.5 μM) is on record as “no activity”. In addition, the “rise in FP signal (inhibition of nNOS-PDZ/PSD-95-PDZ2)” value in assay [2] (ZL006 0-2900 μM, TAMRA-Cnskr2 5 nM / PSD-95-PDZ2 […] / nNOS-PDZ 1 μM) was “no rise in FP signal”. The “activity in indirect FP assay (nNOS-PDZ/PSD-95-PDZ2)” value in assay [2] is listed as “no activity”. Also, the “rise in FP signal (inhibition of nNOS-PDZ/PSD-95-PDZ1-2)” value in assay [3] (ZL006 0-2900 μM, TAMRA-Cnskr2 5 nM / PSD-95-PDZ1-2 1 μM / nNOS-PDZ 2.5 μM) is “no rise in FP signal”.

On to `Oc1c(Cl)cc(Cl)cc1CNc1ccc2[nH]nnc2c1` [IC87201, 2-((1H-Benzo[d][1–3]triazol-5-ylamino)methyl)-4-6-dichlorophenol], for which, on PDZ1 of PSD-95, the “inhibition of probe-PDZ interaction (PDZ1)” value is on record as “did not inhibit”. The “inhibition of TAMRA-nNOS/PDZ1 interaction” value in assay [1] (up to 7.3 μM (fluorescence artefacts above), data not shown) was “no inhibition”. Also, in assay [2], the “activity in indirect FP assay (nNOS-PDZ/PSD-95-PDZ2)” value is reported as “no activity”. Also, the “activity in indirect FP assay (nNOS-PDZ/PSD-95-PDZ1-2)” value in assay [3] (up to 500–600 μM, Cy5-Cnskr2 5 nM / PSD-95-PDZ1-2 1 μM / nNOS-PDZ 5 μM) is reported as “no activity”.
